pIC50: −log10 of the molar value. Each block holds one compound with its values, some of them ahead of it. The source made the active and inactive calls. The rule behind the calls is not given here.
What was measured:
Sphingosine kinase 2 = target: T1, Sphingosine kinase 2 (Homo sapiens, UniProt Q9NRA0)
T1 sequence (Q9NRA0 whole entry): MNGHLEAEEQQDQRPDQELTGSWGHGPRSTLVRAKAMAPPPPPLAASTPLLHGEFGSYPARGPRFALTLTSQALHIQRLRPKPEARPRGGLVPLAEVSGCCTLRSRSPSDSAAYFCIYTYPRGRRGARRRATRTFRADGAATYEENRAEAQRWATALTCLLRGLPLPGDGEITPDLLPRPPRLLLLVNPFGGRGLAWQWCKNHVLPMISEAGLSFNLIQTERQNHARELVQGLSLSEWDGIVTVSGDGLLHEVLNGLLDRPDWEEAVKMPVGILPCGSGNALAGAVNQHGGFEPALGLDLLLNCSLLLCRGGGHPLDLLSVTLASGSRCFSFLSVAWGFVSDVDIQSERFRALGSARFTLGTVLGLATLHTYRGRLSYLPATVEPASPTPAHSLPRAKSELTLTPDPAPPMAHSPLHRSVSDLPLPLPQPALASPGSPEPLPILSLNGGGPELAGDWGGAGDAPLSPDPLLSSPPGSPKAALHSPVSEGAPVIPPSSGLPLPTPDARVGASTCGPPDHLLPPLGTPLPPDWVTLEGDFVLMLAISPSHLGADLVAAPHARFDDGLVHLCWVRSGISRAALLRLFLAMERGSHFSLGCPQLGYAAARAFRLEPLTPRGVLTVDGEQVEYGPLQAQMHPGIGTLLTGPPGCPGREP

MDA-MB-231 [1] = experiment: Antimetastatic activity against human MDA-MB-231 cells […] assessed as downregulation of MMP-9 at 30 uM incubated for 2 to 12 hrs by western blot analysis; format: functional, cell-based; details: time 2-12 hrs
HT-29 [2] = experiment: Induction of cell cycle arrest in human HT-29 cells assessed as accumulation at G0/G1 phase at 10 uM incubated for 24 hrs by PI staining based flow cytometry; format: functional
HT-29 [3] = experiment: Induction of cell cycle arrest at G1 phase in human HT-29 cells assessed as increase in P21 expression at 30 uM incubated for 24 hrs by Western blot analysis; format: functional, cell-based
HT-29 [4] = experiment: Induction of cell cycle arrest at G0/G1 phase in human HT-29 cells assessed as decrease in p-Rb expression at 10 to 30 uM incubated for 24 hrs by Western blot analysis; format: functional, cell-based; details: dose 10-30 µM
HT-29 [5] = experiment: Induction of cell cycle arrest at G0/G1 phase in human HT-29 cells assessed as reduction in cyclinA expression at 10 to 30 uM incubated for 24 hrs by Western blot analysis; format: functional, cell-based; details: dose 10-30 µM
HT-29 [6] = experiment: Induction of cell cycle arrest at G0/G1 phase in human HT-29 cells assessed as reduction in cyclinE1 expression at 10 to 30 uM incubated for 24 hrs by Western blot analysis; format: functional, cell-based; details: dose 10-30 µM
HT-29 [7] = experiment: Induction of cell cycle arrest at G0/G1 phase in human HT-29 cells assessed as reduction in cyclinD1 expression at 10 to 30 uM incubated for 24 hrs by Western blot analysis; format: functional, cell-based; details: dose 10-30 µM
HT-29 [8] = experiment: Induction of cell cycle arrest at G0/G1 phase in human HT-29 cells assessed as reduction in CDK6 expression at 10 to 30 uM incubated for 24 hrs by Western blot analysis; format: functional, cell-based; details: dose 10-30 µM
MDA-MB-231 [9] = experiment: Induction of apoptosis in human MDA-MB-231 cells assessed as early apoptotic cells at 10 uM incubated for 48 hrs by Annexin V-FITC/PI staining based flow cytometry (reference value: 2.35 %); format: functional
MDA-MB-231 [10] = experiment: Induction of apoptosis in human MDA-MB-231 cells assessed as viable cells at 10 uM incubated for 48 hrs by Annexin V-FITC/PI staining based flow cytometry (reference value: 94.3 %); format: functional; details: read-out: Activity
MDA-MB-231 [11] = experiment: Induction of apoptosis in human MDA-MB-231 cells assessed as viable cells at 30 uM incubated for 48 hrs by Annexin V-FITC/PI staining based flow cytometry (reference value: 94.3 %); format: functional; details: read-out: Activity
MDA-MB-231 [12] = experiment: Antimigratory activity against human MDA-MB-231 cells assessed as reduction in cell migration at 40 uM incubated for 8 hrs by crystal violet staining microscopy based transwell migration assay; format: functional
MDA-MB-231 [13] = experiment: Antimigratory activity against human MDA-MB-231 cells assessed as inhibition of cell migration in human MDA-MB-231 cells at 40 uM incubated for 15 hrs by wound healing assay; format: functional, cell-based
[14] = Tmax in mouse at 20 mg/kg, po; format: ADME, organism-based; details: in vivo
[15] = Cmax in mouse at 20 mg/kg, po; format: ADME, organism-based; set-up: dose 20 mg/kg, route po; details: in vivo
[16] = AUClast in mouse at 20 mg/kg, po; format: ADME, organism-based; set-up: time 0 - last, dose 20 mg/kg, route po; details: in vivo
[17] = AUClast in mouse at 2 mg/kg, iv; format: ADME, organism-based; set-up: time 0 - last, dose 2 mg/kg, route iv; details: in vivo
[18] = Half life in mouse at 20 mg/kg, po; format: ADME, organism-based; details: in vivo
[19] = Half life in mouse at 2 mg/kg, iv; format: ADME, organism-based; details: in vivo
[20] = Clearance in mouse at 2 mg/kg, iv; format: ADME, organism-based; details: in vivo
[21] = Oral bioavailability in mouse at 20 mg/kg; format: ADME, organism-based; details: in vivo
HT-29 [22] = experiment: Antitumor activity against human HT-29 cells xenografted in BALB/c mouse assessed as tumor growth inhibition at 50 mg/kg/day, ip for 3 weeks and measured every 3 days by caliper method; format: functional, organism-based
[23] = Toxicity in BALB/c mouse xenografted with human HT-29 cells assessed as change in body weight at 50 mg/kg/day, ip for 3 weeks and measured every 3 days; format: organism-based; details: in vivo, 504 h
[24] = Toxicity in BALB/c mouse xenografted with human MDA-MB-231 cells assessed as change in body weight at 50 mg/kg/day, ip for 3 weeks and measured every 3 days; format: organism-based; details: in vivo, 504 h
[25] = Toxicity in BALB/c mouse xenografted with human MDA-MB-231 cells assessed as body weight change at 100 mg/kg, ip administrated for 28 days; format: organism-based; details: in vivo, 672 h, time 28 day
MDA-MB-231 [26] = experiment: Antimetastatic activity against human MDA-MB-231 cells xenografted in BALB/c mouse assessed as decrease in plasma S1P levels at 100 mg/kg, ip for 28 days; format: functional, organism-based; details: time 28.0 day
MDA-MB-231 [27] = experiment: Antimetastatic activity against human MDA-MB-231 cells […] assessed as inhibition of NF-kappaB p65 phosphorylation at 30 uM incubated for 2 to 12 hrs by Western blot analysis; format: functional, cell-based; details: time 2-12 hrs
MDA-MB-231 [28] = experiment: Antimetastatic activity against human MDA-MB-231 cells […] assessed as inhibition of FSCN1 phosphorylation at 30 uM incubated for 2 to 12 hrs by western blot analysis; format: functional, cell-based; details: time 2-12 hrs
MDA-MB-231 [29] = experiment: Antimetastatic activity against human MDA-MB-231 cells […] assessed as upregulation of phosphorylated beta-catenin at 30 uM incubated for 2 to 12 hrs by western blot analysis; format: functional, cell-based; details: time 2-12 hrs
MDA-MB-231 [30] = experiment: Induction of apoptosis in human MDA-MB-231 cells assessed as necrotic cells at 10 uM incubated for 48 hrs by Annexin V-FITC/PI staining based flow cytometry (reference value: 1.42 %); format: functional
MDA-MB-231 [31] = experiment: Induction of apoptosis in human MDA-MB-231 cells assessed as late apoptotic cells at 10 uM incubated for 48 hrs by Annexin V-FITC/PI staining based flow cytometry (reference value: 1.96 %); format: functional
[32] = Half life in mouse at 10 mg/kg, ip; format: ADME, organism-based; details: in vivo
MDA-MB-231 [33] = experiment: Induction of apoptosis in human MDA-MB-231 cells assessed as early apoptotic cells at 30 uM incubated for 48 hrs by Annexin V-FITC/PI staining based flow cytometry (reference value: 2.35 %); format: functional
MDA-MB-231 [34] = experiment: Induction of apoptosis in human MDA-MB-231 cells assessed as late apoptotic cells at 30 uM incubated for 48 hrs by Annexin V-FITC/PI staining based flow cytometry (reference value: 1.96 %); format: functional
MDA-MB-231 [35] = experiment: Induction of apoptosis in human MDA-MB-231 cells assessed as necrotic cells at 30 uM incubated for 48 hrs by Annexin V-FITC/PI staining based flow cytometry (reference value: 1.42 %); format: functional

pIC50 (Sphingosine kinase 2): < 5.00
SMILES: O=S(=O)(Cc1cc(OCc2ccc(CN3CCC[C@@H]3CO)cc2)cc(C(F)(F)F)c1)c1ccccc1

Tmax [14]: 15 min | Cmax [15]: 16.8 ng/mL | AUC(0-t) [16]: 32.3 ng·h/mL | AUC(0-t) [17]: 168 ng·h/mL | half-life [18]: 258 min | half-life [19]: 60.6 min | clearance [20]: 207 mL/min/kg | bioavailability [21]: 1.92% | half-life [32]: 72 min
SMILES: Cc1cc(CS(=O)(=O)c2ccccc2)cc(OCc2ccc(CN3CCC[C@@H]3CO)cc2)c1
Activity (MDA-MB-231 [1]): Active | Activity (HT-29 [2]): Active | Activity (HT-29 [3]): Active | Activity (HT-29 [4]): Active | Activity (HT-29 [5]): Active | Activity (HT-29 [6]): Active | Activity (HT-29 [7]): Active | Activity (HT-29 [8]): Active | Activity (MDA-MB-231 [9]): 4.89% | viability at 10 µM (MDA-MB-231 [10]): 85.8% | viability at 30 µM (MDA-MB-231 [11]): 65.4% | Activity (MDA-MB-231 [12]): Active | Activity (MDA-MB-231 [13]): Active | Activity (HT-29 [22]): Active | Activity [23]: Non-Toxic | Activity [24]: Non-Toxic | Activity [25]: Non-Toxic | Activity (MDA-MB-231 [26]): Active | Activity (MDA-MB-231 [27]): Active | Activity (MDA-MB-231 [28]): Active | Activity (MDA-MB-231 [29]): Active | Activity (MDA-MB-231 [30]): 2.22% | Activity (MDA-MB-231 [31]): 7.11% | Activity (MDA-MB-231 [33]): 25.2% | Activity (MDA-MB-231 [34]): 7.47% | Activity (MDA-MB-231 [35]): 1.99%

pIC50 (Sphingosine kinase 2): < 5.00
SMILES: Cc1cc(CS(=O)(=O)c2ccccc2)cc(OCCCCCCCN2CCC[C@@H]2CO)c1

pIC50 (Sphingosine kinase 2): < 5.00
SMILES: Cc1cc(CS(=O)(=O)c2ccccc2)cc(OCc2ccc(CN3CCCCC3CO)cc2)c1 (stereo not drawn)

Reference: ChEMBL document CHEMBL5154877, “Novel Sphingosine Kinase 1 Inhibitor Suppresses Growth of Solid Tumor and Inhibits the Lung Metastasis of Triple-Negative Breast Cancer” (J Med Chem, 2022)
